Measured values taken from US20170008888A1 (KYORIN PHARMACEUTICAL CO., LTD., priority 2014, published 2017).

How the values were obtained:
[1] = tested on: AMPKa1 or AMPKa2; experiment: Probe-based (AX9989) kinase profiling in Jurkat lysate: AMPKa1 or AMPKa2; type: binding
Procedure, shortened: (§1)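 Percent inhibition was derived from reduced LC/MS fragment intensities of probe-labeled peptides relative to compound-free controls. Before labeling with 5 μM AX9989, Mn2+-supplemented (20 mM) Jurkat lysate was exposed to compound for 15 min at room temperature.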

[2] = target: T1, ACK (Homo sapiens, UniProt Q07912); experiment: Probe-based (AX9989) kinase profiling in Jurkat lysate: ACK; type: binding; conditions: read-out: Kinase inhibition % at indicated screening concentration: ACK; for inhibition at 1 µM: screening concentration 1.0 μM
T1 construct: screened for activity against several kinases in Jurkat cells; endogenous in cells; host or cells: Jurkat cell lysate
Procedure, shortened: as §1

[3] = target: T2, ERK5 (Homo sapiens, UniProt Q13164); experiment: Probe-based (AX9989 acyl phosphate ATP probe) kinase profiling in Jurkat lysate: ERK5; type: binding; conditions: for IC50: calculated from percent inhibition of AX9989 labeling and the screening concentration, Jurkat lysate; for inhibition at 1 µM: screening concentration 1.0 μM
T2 construct: screened for activity against several kinases in Jurkat cells; endogenous in cells; host or cells: Jurkat cell lysate
Procedure, shortened: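 ERK5 IC50 values came from percent inhibition at the screening concentration, measured as loss of LC/MS signal of probe-labelled active-site peptides. Compound was added for 15 min at room temperature to Jurkat lysate (5 mg/ml, 20 mM MnCl2) before labelling with AX9989 ATP acyl phosphate probe at 5 μM.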

[4] = target: T3, TAO2 (Homo sapiens, UniProt Q9UL54); experiment: Probe-based (AX9989) kinase profiling in Jurkat lysate: TAO2; type: binding; conditions: read-out: Kinase inhibition % at indicated screening concentration: TAO2; for inhibition at 1 µM: screening concentration 1.0 μM
T3 construct: screened for activity against several kinases in Jurkat cells; endogenous in cells; host or cells: Jurkat cell lysate
T3 sequence (Q9UL54 1-1235): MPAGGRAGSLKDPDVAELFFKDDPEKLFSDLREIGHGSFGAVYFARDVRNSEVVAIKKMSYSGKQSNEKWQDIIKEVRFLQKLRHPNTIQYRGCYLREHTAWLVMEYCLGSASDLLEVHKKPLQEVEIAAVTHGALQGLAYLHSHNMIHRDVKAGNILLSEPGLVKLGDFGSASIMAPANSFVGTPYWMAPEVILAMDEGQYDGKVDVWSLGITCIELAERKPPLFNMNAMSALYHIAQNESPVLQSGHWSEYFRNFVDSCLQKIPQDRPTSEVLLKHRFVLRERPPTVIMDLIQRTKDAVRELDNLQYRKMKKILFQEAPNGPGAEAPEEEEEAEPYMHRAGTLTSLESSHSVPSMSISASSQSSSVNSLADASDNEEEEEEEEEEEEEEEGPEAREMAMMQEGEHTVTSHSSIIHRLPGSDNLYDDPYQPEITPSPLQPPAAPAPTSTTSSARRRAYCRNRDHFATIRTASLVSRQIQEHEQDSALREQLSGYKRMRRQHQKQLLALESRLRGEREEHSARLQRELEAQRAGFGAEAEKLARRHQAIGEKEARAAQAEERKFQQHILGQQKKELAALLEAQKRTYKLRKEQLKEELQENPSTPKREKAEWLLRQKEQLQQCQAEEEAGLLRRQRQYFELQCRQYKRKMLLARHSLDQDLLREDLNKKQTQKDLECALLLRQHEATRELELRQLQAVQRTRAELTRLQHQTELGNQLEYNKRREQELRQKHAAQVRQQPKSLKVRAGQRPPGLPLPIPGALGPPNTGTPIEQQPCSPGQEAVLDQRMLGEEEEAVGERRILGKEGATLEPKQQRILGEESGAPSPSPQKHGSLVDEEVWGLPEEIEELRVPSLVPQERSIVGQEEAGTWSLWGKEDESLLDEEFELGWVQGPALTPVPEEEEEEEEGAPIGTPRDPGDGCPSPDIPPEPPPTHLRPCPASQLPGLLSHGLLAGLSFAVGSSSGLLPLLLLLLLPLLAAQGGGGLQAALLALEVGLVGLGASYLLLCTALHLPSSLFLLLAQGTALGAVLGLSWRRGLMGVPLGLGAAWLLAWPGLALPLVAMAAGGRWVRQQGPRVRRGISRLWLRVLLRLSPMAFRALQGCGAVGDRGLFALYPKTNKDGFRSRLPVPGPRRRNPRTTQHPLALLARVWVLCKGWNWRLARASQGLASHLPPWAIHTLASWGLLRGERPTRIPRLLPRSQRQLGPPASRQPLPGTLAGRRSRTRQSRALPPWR
Procedure, shortened: as §1

[5] = target: T4, JAK1 (Homo sapiens, UniProt P23458); experiment: Probe-based (AX9989) kinase profiling in Jurkat lysate: JAK1; type: binding; conditions: read-out: Kinase inhibition % at indicated screening concentration: JAK1; for inhibition at 1 µM: screening concentration 1.0 μM
T4 construct: screened for activity against several kinases in Jurkat cells; endogenous in cells; host or cells: Jurkat cell lysate
Procedure, shortened: as §1

[6] = tested on: AurB or AurC; experiment: Probe-based (AX9989) kinase profiling in Jurkat lysate: AurB or AurC; type: binding
Procedure, shortened: as §1

[7] = tested on: ABL or ARG; experiment: Probe-based (AX9989) kinase profiling in Jurkat lysate: ABL or ARG; type: binding
Procedure, shortened: as §1

[8] = target: T5, AurA (Homo sapiens, UniProt O14965); experiment: Probe-based (AX9989) kinase profiling in Jurkat lysate: AurA; type: binding; conditions: read-out: Kinase inhibition % at indicated screening concentration: AurA; for inhibition at 1 µM: screening concentration 1.0 μM
T5 construct: screened for activity against several kinases in Jurkat cells; endogenous in cells; host or cells: Jurkat cell lysate
T5 sequence (O14965 1-403): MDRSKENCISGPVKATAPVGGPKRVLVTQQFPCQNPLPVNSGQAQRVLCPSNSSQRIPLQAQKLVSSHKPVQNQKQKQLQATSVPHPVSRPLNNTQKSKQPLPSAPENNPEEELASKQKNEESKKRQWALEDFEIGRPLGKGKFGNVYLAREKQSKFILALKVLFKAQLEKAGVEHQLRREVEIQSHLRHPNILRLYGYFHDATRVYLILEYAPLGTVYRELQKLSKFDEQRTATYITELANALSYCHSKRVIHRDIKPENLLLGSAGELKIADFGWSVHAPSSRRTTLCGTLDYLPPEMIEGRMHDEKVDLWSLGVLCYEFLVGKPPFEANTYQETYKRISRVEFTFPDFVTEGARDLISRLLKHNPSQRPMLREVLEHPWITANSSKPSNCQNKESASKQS
Procedure, shortened: as §1

[9] = tested on: human PBMCs; experiment: Human PBMC TNF-α response to endotoxin (ELISA); type: cell-based; conditions: 0.1 μg/ml LPS 16 h, read-out: EC50 for the inhibition of the human PBMC TNF-α response to endotoxin, ave. ± S.D.
Experimental: Human PBMCs (Astarte Biologics, Redmond, Wash.) were seeded at 2e6 cells/ml in RPMI 1640 containing 10% (v/v) charcoal-dextran treated, heat inactivated FBS (Omega Scientific, Tarzana, Calif.), 0.05 mM 2-Mercaptoethanol (Sigma-Aldrich, St. Louis, Mo.), and 1×Pen/Strep Amphotericin B (Lonza, Allendale, N.J.). Cells were pre-treated with test compounds (10 μM down by ⅕ in a 4-point serial dilution series) for 1 h at 37° C. in a humidified atmosphere at 5% CO2. Cells were then stimulated with 0.1 μg/ml lipopolysaccharide (LPS) from E. coli 0111:B4 (EMD Millipore, Billerica, Mass.) for 16 h at 37° C. in a humidified atmosphere at 5% CO2. Supernatant was collected and a 25-fold dilution was analyzed for TNF-α concentration using an ELISA kit from Life Technologies (Grand Island, N.Y.) according to the manufacturer's instructions. Absorbance at 450 nm was read using the Synergy 2 multi-detection microplate reader (BioTek Instruments, Winooski, Vt.).

[10] = read-out: Kinase inhibition % at indicated screening concentration: ERK5

T2 sequence (Q13164 whole entry): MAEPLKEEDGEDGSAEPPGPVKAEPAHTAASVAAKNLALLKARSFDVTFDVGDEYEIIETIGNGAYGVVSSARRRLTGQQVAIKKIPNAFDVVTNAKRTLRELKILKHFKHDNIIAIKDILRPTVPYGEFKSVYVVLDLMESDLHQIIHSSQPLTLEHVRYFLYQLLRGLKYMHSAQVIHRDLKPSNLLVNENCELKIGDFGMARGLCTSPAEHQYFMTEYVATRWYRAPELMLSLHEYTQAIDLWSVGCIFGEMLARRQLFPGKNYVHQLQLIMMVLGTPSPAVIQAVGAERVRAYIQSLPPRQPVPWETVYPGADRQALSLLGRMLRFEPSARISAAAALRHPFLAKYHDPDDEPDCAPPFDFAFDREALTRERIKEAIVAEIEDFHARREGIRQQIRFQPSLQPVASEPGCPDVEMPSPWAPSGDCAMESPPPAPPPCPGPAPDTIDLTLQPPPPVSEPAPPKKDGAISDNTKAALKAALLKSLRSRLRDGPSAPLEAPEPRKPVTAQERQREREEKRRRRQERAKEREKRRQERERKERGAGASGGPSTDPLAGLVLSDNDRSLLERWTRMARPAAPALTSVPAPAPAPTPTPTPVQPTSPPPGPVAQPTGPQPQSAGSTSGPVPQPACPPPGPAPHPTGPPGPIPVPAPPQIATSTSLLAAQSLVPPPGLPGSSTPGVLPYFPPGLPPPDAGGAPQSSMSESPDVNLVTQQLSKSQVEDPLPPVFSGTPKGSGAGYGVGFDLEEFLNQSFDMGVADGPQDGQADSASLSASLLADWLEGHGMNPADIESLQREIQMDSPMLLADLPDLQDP
T4 sequence (P23458 whole entry): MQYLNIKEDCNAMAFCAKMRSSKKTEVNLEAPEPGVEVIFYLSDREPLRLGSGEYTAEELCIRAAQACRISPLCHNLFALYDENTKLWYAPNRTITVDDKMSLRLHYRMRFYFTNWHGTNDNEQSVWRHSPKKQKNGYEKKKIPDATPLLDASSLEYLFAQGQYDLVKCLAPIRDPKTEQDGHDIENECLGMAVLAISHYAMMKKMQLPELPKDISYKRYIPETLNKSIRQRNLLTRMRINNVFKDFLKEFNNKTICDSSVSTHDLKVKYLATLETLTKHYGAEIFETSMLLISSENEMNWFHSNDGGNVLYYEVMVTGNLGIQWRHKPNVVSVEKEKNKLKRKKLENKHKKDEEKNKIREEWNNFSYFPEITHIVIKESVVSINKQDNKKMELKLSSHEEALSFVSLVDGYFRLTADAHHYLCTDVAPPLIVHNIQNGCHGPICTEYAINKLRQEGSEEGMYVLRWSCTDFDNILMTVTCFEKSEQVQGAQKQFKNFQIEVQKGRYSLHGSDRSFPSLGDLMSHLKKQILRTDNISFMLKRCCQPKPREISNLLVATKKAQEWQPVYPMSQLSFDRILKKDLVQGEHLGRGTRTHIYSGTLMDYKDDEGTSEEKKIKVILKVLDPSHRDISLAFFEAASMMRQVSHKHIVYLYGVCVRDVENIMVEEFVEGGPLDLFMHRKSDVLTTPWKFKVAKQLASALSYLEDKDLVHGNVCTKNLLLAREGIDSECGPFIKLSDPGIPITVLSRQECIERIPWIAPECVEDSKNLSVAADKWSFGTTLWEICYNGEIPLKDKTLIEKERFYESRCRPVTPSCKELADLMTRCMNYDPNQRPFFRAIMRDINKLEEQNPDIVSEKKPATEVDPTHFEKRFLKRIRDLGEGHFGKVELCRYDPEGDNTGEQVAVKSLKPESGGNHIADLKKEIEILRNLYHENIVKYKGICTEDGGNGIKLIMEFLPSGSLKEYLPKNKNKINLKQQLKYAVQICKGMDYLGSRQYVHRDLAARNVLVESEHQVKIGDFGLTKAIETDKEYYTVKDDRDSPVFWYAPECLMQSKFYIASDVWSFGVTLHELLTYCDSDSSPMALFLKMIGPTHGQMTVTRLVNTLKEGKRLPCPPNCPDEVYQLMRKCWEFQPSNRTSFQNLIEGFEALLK
T1 sequence (Q07912 whole entry): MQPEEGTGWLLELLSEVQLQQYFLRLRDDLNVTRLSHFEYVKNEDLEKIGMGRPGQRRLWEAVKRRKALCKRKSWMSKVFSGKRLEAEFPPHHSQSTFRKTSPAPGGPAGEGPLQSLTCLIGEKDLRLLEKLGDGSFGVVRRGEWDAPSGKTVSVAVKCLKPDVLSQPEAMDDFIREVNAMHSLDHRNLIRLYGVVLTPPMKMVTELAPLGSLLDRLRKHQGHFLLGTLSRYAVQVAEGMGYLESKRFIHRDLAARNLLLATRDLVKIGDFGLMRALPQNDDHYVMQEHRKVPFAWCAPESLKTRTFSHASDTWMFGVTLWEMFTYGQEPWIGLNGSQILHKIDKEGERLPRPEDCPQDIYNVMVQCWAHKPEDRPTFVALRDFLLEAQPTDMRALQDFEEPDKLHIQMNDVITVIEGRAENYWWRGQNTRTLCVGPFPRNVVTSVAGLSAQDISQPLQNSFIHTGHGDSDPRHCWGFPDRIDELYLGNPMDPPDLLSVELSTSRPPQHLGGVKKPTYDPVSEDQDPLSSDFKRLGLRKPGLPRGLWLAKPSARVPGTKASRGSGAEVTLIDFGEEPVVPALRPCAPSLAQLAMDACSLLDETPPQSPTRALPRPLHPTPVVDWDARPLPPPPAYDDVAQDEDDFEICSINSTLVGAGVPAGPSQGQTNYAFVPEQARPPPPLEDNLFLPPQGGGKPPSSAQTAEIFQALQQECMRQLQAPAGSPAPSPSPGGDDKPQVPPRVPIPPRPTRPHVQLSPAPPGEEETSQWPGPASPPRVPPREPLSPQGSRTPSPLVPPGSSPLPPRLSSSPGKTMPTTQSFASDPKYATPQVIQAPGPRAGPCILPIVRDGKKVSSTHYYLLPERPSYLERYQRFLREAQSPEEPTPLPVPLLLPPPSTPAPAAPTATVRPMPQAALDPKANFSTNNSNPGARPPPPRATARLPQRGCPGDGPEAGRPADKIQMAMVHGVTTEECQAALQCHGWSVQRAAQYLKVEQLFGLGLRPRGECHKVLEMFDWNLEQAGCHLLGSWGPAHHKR

Row | Kinase inhibition % at indicated screening concentration: AMPKa1 or AMPKa2 ([1]; screening concentration 1.0 μM) | inhibition at 1 µM [2] [%] | IC50 [3] [nM] | inhibition at 1 µM [3, 10] [%] | inhibition at 1 µM [4] [%] | inhibition at 1 µM [5] [%] | Kinase inhibition % at indicated screening concentration: AurB or AurC ([6]; screening concentration 1.0 μM) | Kinase inhibition % at indicated screening concentration: ABL or ARG ([7]; screening concentration 1.0 μM) | inhibition at 1 µM [8] [%] | Kinase inhibition % at indicated screening concentration: AMPKa1 or AMPKa2 ([1]; screening concentration 0.1 μM) | inhibition at 0.1 µM ([2]; screening concentration 0.1 μM) [%] | inhibition at 0.1 µM ([3]; screening concentration 0.1 μM, read-out: Kinase inhibition % at indicated screening concentration: ERK5) [%] | inhibition at 0.1 µM ([4]; screening concentration 0.1 μM) [%] | inhibition at 0.1 µM ([5]; screening concentration 0.1 μM) [%] | Kinase inhibition % at indicated screening concentration: AurB or AurC ([6]; screening concentration 0.1 μM) | Kinase inhibition % at indicated screening concentration: ABL or ARG ([7]; screening concentration 0.1 μM) | inhibition at 0.1 µM ([8]; screening concentration 0.1 μM) [%] | Compound | EC50 [9] [nM]
1 | E (E is ≦35%) | ≤ 35 | 101 to 500 | 50 to 75 | ≤ 35 | ≤ 35 | E (E is ≦35%) | D (D is >35% to ≦50%) | ≤ 35 | – | – | – | – | – | – | – | – | CCOc1cc(C(=O)NCCN2CCOCC2)ccc1Nc1cc2c(cn1)N(C)C(=O)c1ccccc1N2C [Compound 5] | 1750
2 | – | – | ≤ 50 | – | – | – | – | – | – | E (E is ≦35%) | ≤ 35 | > 90 | ≤ 35 | ≤ 35 | E (E is ≦35%) | E (E is ≦35%) | ≤ 35 | CCOc1cc(C(=O)N2CCC(N)C2)ccc1Nc1cc2c(cn1)N(C)C(=O)c1occc1N2C (stereo not shown) [Compound 11] | 2520
3 | E (E is ≦35%) | ≤ 35 | > 500 | > 90 | ≤ 35 | ≤ 35 | E (E is ≦35%) | E (E is ≦35%) | ≤ 35 | – | – | – | – | – | – | – | – | COc1cccnc1Nc1cc2c(cn1)N(C)C(=O)c1ccccc1N2C [Compound 14] | 2850
4 | E (E is ≦35%) | ≤ 35 | 101 to 500 | 75 to 90 | ≤ 35 | ≤ 35 | E (E is ≦35%) | E (E is ≦35%) | ≤ 35 | – | – | – | – | – | – | – | – | CCN(CC)CCNC(=O)c1ccc(OC)c(Nc2cc3c(cn2)N(C)C(=O)c2ccccc2N3C)c1 [Compound 16] | 1870
